Assay results taken from paper PMC9502272, “A Metabolomics Approach for Predicting OATP1B-Type Transporter-Mediated Drug–Drug Interaction Liabilities” (Pharmaceutics, 2022).
Structures can show the parent of a compound that is named as a salt.

Biological target: T1, Oatp1b2 (Mus musculus, UniProt Q9JJL3)
T1 sequence (Q9JJL3 1-689): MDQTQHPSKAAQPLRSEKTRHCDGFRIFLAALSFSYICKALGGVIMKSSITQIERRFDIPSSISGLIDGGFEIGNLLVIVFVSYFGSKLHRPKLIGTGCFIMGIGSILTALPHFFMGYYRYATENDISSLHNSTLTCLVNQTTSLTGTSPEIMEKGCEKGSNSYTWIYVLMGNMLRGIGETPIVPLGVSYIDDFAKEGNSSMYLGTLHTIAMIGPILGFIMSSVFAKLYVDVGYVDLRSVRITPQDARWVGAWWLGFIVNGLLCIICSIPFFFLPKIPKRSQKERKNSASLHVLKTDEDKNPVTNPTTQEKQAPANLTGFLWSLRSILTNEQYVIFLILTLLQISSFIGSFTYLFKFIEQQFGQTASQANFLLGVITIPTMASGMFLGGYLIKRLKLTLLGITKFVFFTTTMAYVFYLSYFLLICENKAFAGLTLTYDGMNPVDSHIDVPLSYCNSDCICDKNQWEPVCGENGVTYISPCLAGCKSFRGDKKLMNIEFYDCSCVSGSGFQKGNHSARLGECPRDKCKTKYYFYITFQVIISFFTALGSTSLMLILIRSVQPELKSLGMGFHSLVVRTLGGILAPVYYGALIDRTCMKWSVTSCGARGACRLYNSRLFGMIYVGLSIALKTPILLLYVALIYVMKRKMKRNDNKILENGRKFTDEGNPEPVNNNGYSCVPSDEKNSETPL
Experiment: Untargeted metabolomics of plasma from untreated wild-type and Oatp1b2(−/−) mice
Conditions: for Fold of Change KO/WT: plasma of untreated Oatp1b2-deficient (KO) vs wild-type (WT) mice, semi-quantitative, positive = higher in KO, n = 6 per group; for Mean value KO: plasma of untreated Oatp1b2-deficient mice; for Mean value KO / Mean value WT: raw area counts rescaled to median = 1; for Mean value WT: plasma of untreated wild-type mice
Experimental: For all experiments, age- and sex-matched mice (8–12 weeks old) were used. […] Mice with a deficiency of Oatp1b2 (Oatp1b2(−/−) mice), the single murine orthologue of OATP1B1 and OATP1B3 in humans, on a DBA/1LacJ background were kindly provided by Drs. Richard B. Kim (Western University, London, Ontario, Canada) and Jeffrey L. Stock (Pfizer, Groton, CT, USA).
Plasma samples from untreated wild-type mice and Oatp1b2(−/−) mice were analyzed for structurally named and unknown molecules using a non-targeted semi-quantitative liquid chromatography-tandem mass spectrometry (LC-MS/MS) and gas chromatography-mass spectrometry platforms (Metabolon, Durham, NC, USA). Compounds were identified by comparison with library entries of purified standards or recurrent unknown entities.

Row | Fold of Change KO/WT | Mean value KO | Mean value WT | Molecule
1 | 1.73 | 1.33 | .765 | CCCCCCCCCCCCCCCC(=O)OC[C@@H](O)COP(=O)(O)OCCN [1-palmitoyl-GPE (16:0)]
2 | 1.66 | 1.36 | .818 | O=C(O)CCCCCCCCCCCCCCCC(=O)O [heptadecanedioate (C17-DC)]
3 | 1.46 | 1.27 | .869 | eicosadienamide (20:2)
4 | 1.59 | 1.21 | .764 | CCCCCCCCCCCCCCCCC(=O)OC(CC(=O)[O-])C[N+](C)(C)C (centres unmarked) [margaroylcarnitine (C17)]
5 | 1.38 | 1.22 | .886 | CCCCCCCC/C=C\CCCCCCCC(N)=O [oleamide]
6 | 1.48 | 1.26 | .854 | CCCCC/C=C\C/C=C\C/C=C\C/C=C\CCCC(=O)O[C@H](COC(=O)CCCCCCC/C=C\C/C=C\CCCCC)COP(=O)(O)OCCN [1-linoleoyl-2-arachidonoyl-GPE (18:2/20:4)]
7 | 3.48 | 1.88 | .540 | octadecadienedioate (C18:2-DC)
8 | 1.48 | 1.19 | .804 | O=S(=O)(O)Oc1c[nH]c2ccccc12 [3-indoxyl sulfate]
9 | 1.63 | 1.54 | .943 | CCCCCCC=CCCCCCCCC(=O)OC(CC(=O)[O-])C[N+](C)(C)C (centres unmarked) [palmitoleoylcarnitine (C16:1)]
10 | 15.2 | 2.84 | .187 | C[C@H](CCC(=O)O)[C@H]1CC[C@H]2[C@@H]3[C@@H](O)[C@@H](O)[C@@H]4C[C@H](O)CC[C@]4(C)[C@H]3CC[C@]12C [beta-muricholate]
11 | – | – | .930 | sphingomyelin (d18:1/14:0, d16:1/16:0)
12 | 6.23 | 2.26 | .362 | C[C@H](CCC(=O)O)[C@H]1CC[C@H]2[C@@H]3C(=O)C[C@@H]4C[C@H](O)CC[C@]4(C)[C@H]3C[C@H](O)[C@]12C [7-ketodeoxycholate]
13 | 1.38 | 1.22 | .883 | C/C=C(\C)C(=O)NCC(=O)O [tigloylglycine]
14 | 1.32 | 1.02 | .769 | sphingomyelin (d17:1/14:0, d16:1/15:0)
15 | 17.2 | 4.08 | .238 | CCc1ccc(OS(=O)(=O)[O-])cc1.[K+] [4-ethylphenylsulfate]
16 | 2.46 | 0.940 | .382 | C[C@H](CCC(=O)O)[C@H]1CC[C@H]2[C@@H]3C[C@H](O)[C@@H]4C[C@@H](O)CC[C@]4(C)[C@H]3CC[C@]12C [isohyodeoxycholate]
17 | 1.29 | 1.12 | .870 | CC(C)CCC[C@@H](C)[C@H]1CC[C@H]2[C@@H]3CCC4=CC(=O)CC[C@]4(C)[C@H]3CC[C@]12C [4-cholesten-3-one]

Row | Fold of Change KO/WT | Mean value KO | Mean value WT | Molecule
18 | 1.36 | 1.14 | .839 | sphingomyelin (d18:2/14:0, d18:1/14:1)
19 | 4.32 | 1.64 | .380 | O=C(O)CCCCCCCCC(O)CC(=O)O (centres unmarked) [3-hydroxydodecanedioate]
20 | 1.46 | 1.37 | .936 | CCCCCC/C=C\CCCC(=O)OC(CC(=O)[O-])C[N+](C)(C)C (centres unmarked) [5-dodecenoylcarnitine (C12:1)]
21 | 1.97 | 1.31 | .666 | CCCCCC/C=C\CCCCCCCC(=O)OC[C@@H](O)COP(=O)([O-])OCC[N+](C)(C)C [1-palmitoleoyl-GPC (16:1)]
22 | 1.40 | 1.15 | .817 | CC(C)C(=O)O[C@H](CC(=O)[O-])C[N+](C)(C)C [isobutyrylcarnitine (C4)]
23 | 33.8 | 5.10 | .151 | C[C@H](CCC(=O)O)[C@H]1CC[C@H]2[C@@H]3[C@@H](O)C[C@@H]4C[C@H](O)CC[C@]4(C)[C@H]3C[C@H](O)[C@]12C [ursocholate]
24 | 12.7 | 2.35 | .185 | octadecenedioylcarnitine (C18:1-DC)
25 | 3.17 | 1.59 | .500 | O=C(O)[C@H]1OC(O)[C@H](O)[C@@H](O)[C@@H]1O (mixture of isomers) [glucuronate]
26 | 1.94 | 1.42 | .736 | CCCCC/C=C\C/C=C\CCCCCCCC(=O)OC[C@@H](O)COP(=O)(O)OCCN [1-linoleoyl-GPE (18:2)]
27 | 2.16 | 1.45 | .672 | CCCCCCCC/C=C\CCCCCC/C=C\OC[C@@H](O)COP(=O)(O)OCCN [1-(1-enyl-oleoyl)-GPE (P-18:1)]
28 | 1.72 | 1.28 | .744 | CCCC(=O)NCC(=O)O [butyrylglycine]
29 | – | – | .931 | (N(1) + N(8))-acetylspermidine
30 | 5.64 | 1.41 | .251 | C[C@H](CCC(=O)O)[C@H]1CC[C@H]2[C@@H]3[C@H](O)[C@H](O)[C@@H]4C[C@H](O)CC[C@]4(C)[C@H]3CC[C@]12C [hyocholate]
31 | 3.61 | 1.62 | .448 | hexadecenedioate (C16:1-DC)
32 | 2.13 | 1.41 | .661 | CC/C=C\C/C=C\C/C=C\CCCCCCCC(=O)OC[C@@H](O)COP(=O)([O-])OCC[N+](C)(C)C [1-linolenoyl-GPC (18:3)]
33 | 1.46 | 1.24 | .847 | CCCCCCCC/C=C\CCCCCCCC(=O)O[C@H](COC(=O)CCCCCCCCCCCCCCC)COP(=O)(O)OCCN [1-palmitoyl-2-oleoyl-GPE (16:0/18:1)]
34 | 1.92 | 1.53 | .796 | CCCCC/C=C\C/C=C\C/C=C\C/C=C\CCCC(=O)O[C@H](CC(=O)[O-])C[N+](C)(C)C [arachidonoylcarnitine (C20:4)]

Row | Molecule | Fold of Change KO/WT | Mean value KO | Mean value WT
35 | CCCCC/C=C\C/C=C\CCCCCCCC(=O)OC[C@@H](O)COP(=O)([O-])OCC[N+](C)(C)C [1-linoleoyl-GPC (18:2)] | 1.62 | 1.22 | .752
36 | enterolactone sulfate | 3.42 | 1.63 | .478
37 | NCCS(=O)O [hypotaurine] | 1.28 | 1.14 | .887
38 | CCC(C)C(O)C(=O)O (centres unmarked) [2-hydroxy-3-methylvalerate] | 3.15 | 2.33 | .738
